The subject of data set [1] is thrombin-induced platelet aggregation. Nature of the data set: Platelet aggregation induced by thrombin (turbidimetric, washed platelet suspension). To be noted: for inhibition of thrombin-induced platelet aggregation (in words): discussion of Table 1; for IC50: rabbit platelets incubated with test compound at 37° C. for 1 min, then thrombin (0.1 unit/mL). The data set is classed as cell-based, rabbit. As for the experimental part: (§1) Collagen (type 1, bovine Achilles tendon), obtained from Sigma Chemical Co., was homogenized in […] HOAc and stored at −70° C. Arachidonic acid, bovine serum albumin (BSA), EDTA (disodium salt), sodium citrate, dimethyl sulfoxide (DMSO), and platelet activating factor (PAF) were purchased from Sigma Chemical Co. Thrombin (bovine) was obtained from Parke-Davis Co. and dissolved in 50% (viv) glycerol to give a stock solution of 100 NIH units/mL.
(§2) Blood was collected from the rabbit marginal ear vein and was mixed with EDTA to a final concentration of 6 mM. It was centrifuged at 90 g for 10 min at room temperature, and the supernatant was obtained as platelet-rich plasma. The latter was further centrifuged at 500 g for 10 min. The platelet pellets were washed with Tyrode's solution without EDTA. After centrifugation at the same conditions, the platelet pellets were finally suspended in Tyrode's solution of the following composition (mM): NaCl (136.8), KCl (2.81, NaHCO3 (11.9), MgCl2 (1.1), NaH2PO4 (0.33), CaCl2 (1.0), and glucose (11.2). Platelet numbers were counted by Coulter Counter (Model ZM) and adjusted to 4.5×10^8 […].
(§3) Aggregation was measured by the turbidmetric method with a dual-channel Lumiaggregometer (Model 1020, Payton, Canada). All glassware was siliconized. One minute before the addition of the aggregation inducer, the platelet suspension was stirred at 900 rpm. The percentage of aggregation was calculated as described previously.

Data set [2] has as its system PAF-induced platelet aggregation. Nature of the data set: Platelet aggregation induced by PAF (turbidimetric, washed platelet suspension). The data set is classed as cell-based, rabbit. To be noted: for inhibition of PAF-induced platelet aggregation (in words): discussion of Table 1; for IC50: rabbit platelets incubated with test compound at 37° C. for 1 min, then PAF (2 ng/mL). As for the experimental part:
as §1, §2, §3

Data set [3] deals with collagen-induced platelet aggregation. Nature of the data set: Platelet aggregation induced by collagen (turbidimetric, washed platelet suspension). The data set is classed as cell-based, rabbit. To be noted: for inhibition of collagen-induced platelet aggregation (in words): discussion of Table 1; for IC50: rabbit platelets incubated with test compound at 37° C. for 1 min, then collagen (10 μg/mL). As for the experimental part: as §1, §2, §3

In another data set the test system is platelet aggregation. Nature of the data set: Antiplatelet aggregation activity, overall statements over the four inducers. The data set is classed as cell-based, rabbit. To be noted: discussion of Table 1, all inducers. Here is the method:
as §1, §2, §3

For data set [4], the system named is AA-induced platelet aggregation. Put plainly: Platelet aggregation induced by AA (turbidimetric, washed platelet suspension). To be noted: for inhibition of AA-induced platelet aggregation (in words): discussion of Table 1; for IC50: rabbit platelets incubated with test compound at 37° C. for 1 min, then AA (100 μM). The data set is classed as cell-based, rabbit. As for the experimental part:
as §1, §2, §3

Setting [5] is: Oryctolagus cuniculus, Platelet, 1 min.

A word on the IC50: it is the midpoint of a concentration-inhibition curve. A higher IC50 goes with a need for much substance. For `COc1cccc(C(=O)n2cc(-c3ccc(CO)o3)c3ccccc32)c1` [Compound 33, N-(3′-Methoxybenzoyl)-3-(5′-hydroxymethyl-2′-furyl)indole], in data set [1], the “inhibition of thrombin-induced platelet aggregation (in words)” value was “significant inhibition” and the IC50 was 175 µM. In addition, in data set [2], the “inhibition of PAF-induced platelet aggregation (in words)” value is “significant inhibition” and the IC50 is 169 µM. Besides, in data set [3], the “inhibition of collagen-induced platelet aggregation (in words)” value is given as “significant inhibition” and the IC50 came out at 83.9 µM. Moreover, the “anti-platelet activity overall (in words)” value in the data set with platelet aggregation was “comparable with YC-1”. Further, in data set [4], the “inhibition of AA-induced platelet aggregation (in words)” value is “significant inhibition” and the IC50 came out at 90.9 µM.
As to `O=S(=O)(c1ccccc1)n1cc(-c2ccc(CO)o2)c2ccccc21` [Compound 16, N-Benzenesulfonyl-3-(5′-hydroxymethyl-2′-furyl)indole], in data set [1], the “inhibition of thrombin-induced platelet aggregation (in words)” value is given as “significant inhibition” and the IC50 was 173 µM. In data set [2], the “inhibition of PAF-induced platelet aggregation (in words)” value is given as “significant inhibition” and the IC50 worked out at 164 µM. In data set [3], the “inhibition of collagen-induced platelet aggregation (in words)” value is on record as “significant inhibition” and the IC50 came out at 73.7 µM. In data set [4], the “inhibition of AA-induced platelet aggregation (in words)” value is reported as “significant inhibition” and the IC50 was found to be 94.9 µM.
As to `OCc1ccc(-c2cn(Cc3ccccc3)c3ccccc23)s1` [Compound 8, N-Benzyl-3-(5′-hydroxymethyl-2′-thienyl)indole], the IC50 in data set [1], in data set [2], in data set [3] and in data set [4] was more than 300 µM in each case. In the data set with platelet aggregation, the “anti-platelet activity overall (in words)” value was “did not improve its activity”.
With `OCc1ccc(-c2nn(Cc3ccccc3)c3ccccc23)o1` [YC-1, 1-benzyl-3-(5′-hydroxymethyl-2′-furyl)indazole], the IC50 in data set [1] (setting [5]) was found to be 180 µM; in data set [2] (setting [5]), 90 µM; in data set [3] (setting [5]), 54.6 µM; in data set [4] (setting [5]) it was 57 µM.
As to `COc1ccc(C(=O)n2cc(-c3ccc(CO)o3)c3ccccc32)cc1` [Compound 34, N-(4′-Methoxybenzoyl)-3-(5′-hydroxymethyl-2′-furyl)indole], in data set [1], the “inhibition of thrombin-induced platelet aggregation (in words)” value is recorded as “poor inhibition” and the IC50 is more than 300 µM. Further, in data set [2], the “inhibition of PAF-induced platelet aggregation (in words)” value is “poor inhibition” and the IC50 stood at 270 µM. For the same compound, in data set [3], the “inhibition of collagen-induced platelet aggregation (in words)” value is “potent inhibition” and it took 30.9 µM to reach half-maximal inhibition (IC50). In data set [4], the “inhibition of AA-induced platelet aggregation (in words)” value was “potent inhibition” and the IC50 amounted to 2.9 µM.
Consider `O=S(=O)(c1ccccc1)n1cc(-c2ccc(CO)s2)c2ccccc21` [Compound 17, N-Benzenesulfonyl-3-(5′-hydroxymethyl-2′-thienyl)indole], for which, in data set [1], the “inhibition of thrombin-induced platelet aggregation (in words)” value is listed as “impaired its inhibitory activity” and the half-maximal inhibitory concentration (IC50) is more than 300 µM. Besides, in data set [2], the “inhibition of PAF-induced platelet aggregation (in words)” value is “excellent inhibitory activity” and the IC50 was 171 µM. Further, in data set [3], the “inhibition of collagen-induced platelet aggregation (in words)” value is on record as “excellent inhibitory activity” and the IC50 came out at 131 µM. In addition, in data set [4], the “inhibition of AA-induced platelet aggregation (in words)” value was “excellent inhibitory activity” and half-maximal inhibition (IC50) was put at 154 µM.
Take `OCc1ccc(-c2nn(Cc3ccccc3)c3ccccc23)cc1` [YD-1, 1-benzyl-3-(4-hydroxymethylphenyl)indazole, reference compound]: the IC50 in data set [1] (setting [5]) was determined as 193 µM; in data set [2] (setting [5]), 143 µM; in data set [3] (setting [5]) it was 123 µM; in data set [4] (setting [5]), 101 µM.
Take `O=C(c1ccccc1)n1cc(-c2ccc(CO)o2)c2ccccc21` [Compound 32, N-Benzoyl-3-(5′-hydroxymethyl-2′-furyl)indole]: in data set [1], the “inhibition of thrombin-induced platelet aggregation (in words)” value is listed as “inefficient” and the IC50 is more than 300 µM. For the same compound, in data set [2], the “inhibition of PAF-induced platelet aggregation (in words)” value is recorded as “inefficient” and the IC50 is more than 300 µM. Besides, in data set [3], the “inhibition of collagen-induced platelet aggregation (in words)” value is listed as “excellent inhibitory activity” and 51.1 µM corresponded to half-maximal inhibition (IC50). Moreover, in data set [4], the “inhibition of AA-induced platelet aggregation (in words)” value is given as “excellent inhibitory activity” and the IC50 was found to be 38.2 µM.
Consider `OCc1ccc(-c2cn(Cc3ccccc3)c3ccccc23)o1` [Compound 7, N-Benzyl-3-(5′-hydroxymethyl-2′-furyl)indole], for which the IC50 in data set [1], in data set [2], in data set [3] and in data set [4] was more than 300 µM in each case. In addition, in the data set with platelet aggregation, the “anti-platelet activity overall (in words)” value is “nearly no anti-platelet activity”.
Broadly, the melting point is the temperature, or range, at which the solid turns liquid. `OCc1ccc(-c2cn(Cc3ccccc3)c3ccccc23)cc1` [Compound 10, N-Benzyl-3-(4-hydroxymethylphenyl)indole]: the melting point is 122 °C. Besides, the IC50 in data set [1] (setting [5]) is more than 300 µM. This compound also returned an IC50 in data set [2] (setting [5]) of 170 µM. Moreover, the “inhibition of PAF-induced platelet aggregation (in words)” value in data set [2] is reported as “inhibited”. The same compound gave an IC50 in data set [3] (setting [5]) of 168 µM. Also, the “inhibition of collagen-induced platelet aggregation (in words)” value in data set [3] is “inhibited”. The IC50 in data set [4] (setting [5]) was more than 300 µM.
